Test results taken from US12258339B2, “Macrocyclic complexes of alpha-emitting radionuclides and their use in targeted radiotherapy of cancer” (Cornell University, priority 2018, dated 2025).

Columns and labels:
[1] = Kinetic inertness of La^3+ and Lu^3+ complexes of macropa: transchelation challenge with EDTA/DTPA; format: physicochemical; conditions: in the presence of 1000 equiv of DTPA, pH 7.4, monitored 21 days by UV
Experimental: Kinetic Inertness of La^3+ and Lu^3+ Complexes of Macropa: Transchelation Challenge. A stock solution of ethylenediaminetetraacetic acid (EDTA, 100 mM) was made in MOPS buffer (prepared as described above) by adjusting the pH of the initial suspension to 6.6 using aqueous NMe4OH.
The preformed La^3+ and Lu^3+ complexes of macropa were challenged with EDTA.
The complex formed in situ between La^3+ and macropa was more rigorously challenged with excess DTPA. A solution containing 500 μM of complex, prepared using the LaCl3 and macropa stock solutions described above, was left to equilibrate for 5 min.
Before assessing its Ac-chelation properties, complex formation was evaluated in situ between macropa and cold La^3+ and Lu^3+ ions.

[2] = In vivo biodistribution of ^225Ac complexes of macropa and DOTA and of ^225Ac(NO3)3 in mice; design: species or system C57BL/6 mice
Experimental: In Vivo Biodistribution of ^225Ac Complexes of Macropa and DOTA. All experiments were approved by the Institutional Animal Care Committee (IACC) of the University of British Columbia and were performed in accordance with the Canadian Council on Animal Care Guidelines. A total of 9 female C57BL/6 mice (6-8 weeks old, 20-25 g) were used for the biodistribution study of each radiometal complex, n=3 for each time point.
Macropa (100 μL of a 1 mg/mL solution in NH4OAc) was diluted with 387 μL of NH4OAc (1 M, pH 7), and an aliquot (203 μL) of ^225Ac(NO3)3 (˜157 kBq) was then added; the pH of this solution was adjusted to 6.5-7 by the addition of 1 M NaOH (210 μL, trace metal grade). After 5 min at ambient temperature, the reaction solution was analyzed by TLC (0.4 M pH 4 sodium citrate as the eluent), which confirmed >95% radiochemical yield. The reaction was allowed to proceed overnight, and the radiochemical yield was again confirmed to be >95% the following morning. At this time, mice were anesthetized by 2% isoflurane, and approximately 100 μL (10-15 kBq) of the [^225Ac(macropa)]^+ complex were injected into the tail vein of each mouse. After injection, mice were allowed to recover and roam freely in their cages, and were euthanized by CO2 inhalation at 15 min, 1 h, or 5 h (n=3 at each time point) post-injection. Blood was collected by cardiac puncture and placed into an appropriate test tube for scintillation counting. Tissues collected included heart, liver, kidneys, lungs, small intestine, large intestine, brain, bladder, spleen, stomach, pancreas, bone, thyroid, tail, urine, and feces. Tissues were weighed and then counted with a calibrated gamma counter (Packard, Cobra II model 5002) using three energy windows: 60-120 keV (window A), 180-260 keV (window B), and 400-480 keV (window C). Counting was performed both immediately after sacrifice and after 7 days; counts were decay corrected from the time of injection and then converted to the percentage of injected dose (% ID) per gram of tissue (% ID/g). […]
The biodistribution studies of [^225Ac(DOTA)]^− and ^225Ac(NO3)3 were carried out as described above for [^225Ac(macropa)]^+, with the following modifications. [^225Ac(DOTA)^− was prepared by adding ^225Ac(NO3)3 (338 μL, 1.1 MBq) to a solution of DOTA (100 μg, 20 mg/mL in H2O) in NH4OAc (467 μL, 0.15 M, pH 7). The pH of the solution was adjusted to 7 using NH4OAc (150 μL, 1 M, pH 7) and the solution was heated at 85° C. for 45 min. RCY>99% was confirmed by TLC as described above. [^225Ac(DOTA)]^− was diluted with saline to a final concentration of 0.05 MBq/100 μL, and 100 μL were injected into each mouse. ^225Ac(NO3)3 (˜58 μL, 0.4 MBq) was diluted and injected in the same manner as [^225Ac(DOTA)]^−. One mouse that was to be euthanized at the 5 h time point in the [^225Ac(DOTA)]^− study died shortly after injection. In the same manner, one mouse that was to be euthanized at the 1 h time point in the ^225Ac(NO3)3 study died.
The in vivo stability [^225Ac(macropa)]^+ was examined by comparing its biodistribution to those of ^225Ac(NO3)3 and [^225Ac(DOTA)]^−. C57BL/6 mice were injected via tail vein with 10-50 kBq of each radiometal complex and were sacrificed after 15 min, 1 h, or 5 h. The amount of ^225Ac retained in each organ was quantified by gamma counting and reported as the percent of injected dose per gram of tissue (% ID/g). The results of these studies are compiled in Tables 1-3. Inadequate stability of an ^225Ac complex leading to the loss of radioisotope in vivo is manifested by the accumulation of ^225Ac in the liver, spleen, and bone of mice.^[11,12,32] […] The biodistribution profile of [^225Ac(macropa)]^+ (FIG. 3B) differs markedly from that of ^225Ac(NO3)3. […] Its biodistribution profile was similar to that of [^225Ac(DOTA)]^− (FIG. 3C), which has been previously shown to retain ^225Ac in vivo.^[7]

[3] = 1 h after i.v. injection, energy window C (400-480 keV)
[4] = 5 h after i.v. injection, energy window A (60-120 keV)

**Q.** For `O=C([O-])c1cccc(CN2CCOCCOCCN(Cc3cccc(C(=O)O)n3)CCOCCOCC2)n1.[La+3]` [La^3+ complex], which “time complex remained intact” value [1] is on record?
**A.** up to 21 days

**Q.** With `O=[N+]([O-])[O-].O=[N+]([O-])[O-].O=[N+]([O-])[O-].[225Ac]` [^225Ac(NO3)3, reference compound] as the molecule, how does the “Organ distribution: feces” value ([2]; 15 min after i.v. injection, energy window A (60-120 keV)) read?
**A.** 0.240 % ID/g

**Q.** What about the “Organ distribution: feces” value ([2]; 1 h after i.v. injection, energy window B (180-260 keV)) of the same molecule?
**A.** 0.3300 % ID/g

**Q.** And the “Organ distribution: thyroids” value [2, 3]?
**A.** 0.0000 % ID/g

**Q.** And the “Organ distribution: brain” value ([2]; 5 h after i.v. injection, energy window B (180-260 keV))?
**A.** 0.0290 % ID/g

**Q.** What about the “Organ distribution: brain” value ([2]; 5 h after i.v. injection, energy window C (400-480 keV)) of the same molecule?
**A.** 0.0430 % ID/g

**Q.** What about the “blood clearance and excretion (in words)” value ([2]; i.v. injection, up to 5 h) of the same molecule?
**A.** slow blood clearance and excretion

**Q.** And the “organ accumulation (in words)” value ([2]; i.v. injection, up to 5 h)?
**A.** large accumulation in the liver and spleen

**Q.** For `O=C([O-])CN1CCN(CC(=O)[O-])CCN(CC(=O)[O-])CCN(CC(=O)[O-])CC1.[225Ac+3]` [[^225Ac(DOTA)]^−, reference compound], which “Organ distribution: brain” value [2, 3] is on record?
**A.** 0.0380 % ID/g

**Q.** What about the “Organ distribution: blood” value [2, 4] of the same molecule?
**A.** 0.0140 % ID/g

**Q.** And the “Organ distribution: lungs” value [2, 4]?
**A.** 0.0390 % ID/g
